Measurements from US9701618B2, “Cannabidiol quinone derivatives” (VIVACELL BIOTECHNOLOGY ESPAÑA S.L., priority 2014, dated 2017).
Entries after “also recorded” stand apart in the source; their conditions may differ.

What was measured:
PPARg [1] = assay: PPARg transactivation assay (GAL4-PPARg/GAL4-luc) in HEK-293 and NIH-3T3 cells; assay type: cell-based, human; settings: for PPARg transactivation (luciferase activity): treated 6 hours, compared with untreated cells
Experimental: The concentration of the tested compound (μM) is shown at the x-axis and the PPARg activation fold is shown at the y-axis. […]. Fold activation level was calculated, taking the control sample (−), without the presence of any PPARg agonist or activating agent, as reference. Data are expressed as mean±S.D. of at least three independent experiments.
To investigate the biological activities of the novel compounds we performed PPARg transactivation assays in HEK-293 cells and in NIH-3T3 fibroblasts cells.
HEK293T cells and human primary fibroblasts cells were maintained at 37° C. in a humidified atmosphere containing 5% CO2 in DMEM supplemented with 10% fetal calf serum (FBS), and 1% (v/v) penicillin/streptomycin. Rosiglitazone was purchased from Cayman Chemical Company (Ann Arbor, Mich., USA). All other reagents were from Sigma Co (St Louis, Mo., USA). HEK293T cells (2×10^3/well) (FIGS. 1A, 1B and 1C) or NIH-3T3 cells (5×10^3/well) (FIG. 2) were seeded in BD Falcon™ White with Clear Bottom 96-well Microtest™ Optilux™ Plate for 24 hours. Afterwards, cells were transiently co-transfected with the expression vector GAL4-PPARγ and the luciferase reporter vector GAL4-luc using Roti©-Fect (Carl Roth, Karlsruhe, Germany) following the manufacturer's instructions. Twenty-four h post-transfection, cells were pretreated with increasing doses of the compounds for 6 hours. Then, the cells were lysed in 25 mM Tris-phosphate pH 7.8, 8 mM MgCl2, 1 mM DTT, 1% Triton X-100, and 7% glycerol. Luciferase activity was measured in the cell lysate using a TriStar LB 941 multimode microplate reader (Berthold) and following the instructions of the Luciferase Assay Kit (Promega, Madison, Wis., USA). Protein concentration was measured by the Bradford assay (Bio-Rad, Richmond, Calif., USA). The background obtained with the lysis buffer was subtracted in each experimental value and the specific transactivation expressed as a fold induction over untreated cells. All the experiments were repeated at least three times. The plasmids used were Gal4-hPPARgamma (plasmid name: pCMV-BD-hPPARg, Sinal Laboratory, Dept. of Pharmacology, Dalhousie University) and Gal4 luc reporter plasmid that includes five Gal4 DNA binding sites fused to the luciferase gene. […]. Data are given as means with deviation standard error bars of three replicates. […].

NIH-3T3 cells = assay: TGFb-induced collagen production, Sirius Red-Fast Green method; assay type: cell-based; settings: 1 hour pre-incubation, TGFb 50 ng/ml 24 hours
Experimental: The production of collagen was carried out using the Sirius Red-Fast Green method, designed to quantify the amount of collagen and non-collagen proteins in cell pellets. The collagen production was determined at 540 nm and 605 nm in a Genesis 10 UV scanning spectrofluorometer (Thermo Fisher Scientific). To calculate the amounts of collagen, first, we corrected the OD 540 value by subtracting the contribution by Fast Green, which interfere in the absorbance at 540 nm. Fast Green contributes 29.1% of the OD 540 value. The Color equivalence is 37.8 for collagen and 2.04 for non-collagen proteins at OD 540 and […], respectively. Collagen(pg/100 μl cell pellet)={[OD 540−(OD 605×0.291)]/37.8×1000}×10^6.
The experiments were repeated three times, and the results were expressed as a fold induction over untreated cells.
The production of collagen was carried out using the Sirius Red-Fast Green method, designed to quantify the amount of collagen and non-collagen proteins in cell pellets. NIH-3T3 cells were seeded at a density of 5×10^4/well in 24 well plates and they were incubated overnight at 37° C. to allow cell attachment. Next, cells were pre-incubated 1 hour with the indicated concentrations of compounds III, V, VIII and X and TGFb (50 ng/ml) during 24 hours. After the treatment, the cell pellets were extracted overnight at 4° C. with 100 μl of 0.5M acetic acid. Then, 1 ml of the dye solution (0.1% Sirius Red and 0.1% Fast Green dissolved in saturated picric acid) was added to the cell pellets and mixed gently at room temperature for 30 minutes. Next, samples were centrifuged at 10,000 g for 5 minutes to pellet the collagen. The supernatants were carefully removed without disturbing the pellet and 1 ml of 0.1 M hydrochloric acid was added to each tube to remove unbound dye. Samples were centrifuged at 10,000 g for 5 minutes and 1 ml of 0.5 M sodium hydroxide was added to each tube and vortex vigorously to release the bound dye. Samples were centrifuged at 2500 g for 5 minutes to re-pellet any cell debris.
The collagen production was determined and the results were expressed as a fold induction over untreated cells.

PPARg [2] = assay: Inhibition of Rosiglitazone-induced PPARg activation in HEK-293 cells; assay type: cell-based, human; settings: pretreated 30 min, then RSZ 1 μM for 6 hours
Experimental: (A) HEK-293 cells were co-transfected with GAL4-PPARg and GAL4-luc. […] Protein lysates were prepared and analyzed for luciferase activity. The concentration of the tested compound (μM) is shown at the x-axis and the PPARg activation fold is shown at the y-axis.
(A) HEK293T cells were maintained at 37° C. in a humidified atmosphere containing 5% CO2 in DMEM supplemented with 10% fetal calf serum (FBS), and 1% (v/v) penicillin/streptomycin. Rosiglitazone was purchased from Cayman Chemical Company (Ann Arbor, Mich., USA). HEK293T cells (2×10^3/well) (FIG. 3A) were seeded in BD Falcon™ White with Clear Bottom 96-well Microtest™ Optilux™ Plate for 24 hours. Afterwards, cells were transiently co-transfected with the expression vector GAL4-PPARγ and the luciferase reporter vector GAL4-luc using Roti©-Fect (Carl Roth, Karlsruhe, Germany) following the manufacturer's instructions. Twenty-four h post-transfection, cells were pretreated with increasing doses of the compounds for 30 min and then stimulated with RSZ (1 μM) for 6 hours.

human COL1A2 promoter = assay: TGFb-induced collagen type I gene transcription (COL1A2-Luc) in NIH-3T3 fibroblasts; assay type: cell-based; settings: 30 min pre-incubation, TGFb 50 ng/ml 6 h
Experimental: To investigate the potential anti-fibrotic activity of CBD-derivatives NIH-3T3 fibroblast cells were transiently transfected with the plasmid COL1A2-Luc plasmid by using Roti©-Fect according to the manufacturer instructions. The COL1A2-luciferase construct contains sequences from −353 to +58 bp of the human COL1A2 promoter fused to the luciferase reporter gene (pGL2 basic, Promega, Madison, Wis.). […] Protein lysates were prepared and analyzed for luciferase activity. The concentration of the tested compound (μM) is shown at the x-axis and the percentage of COL1A2 activation is shown at the y-axis considering 100% activation the effect of TGFb in the absence of the compounds. Data are expressed as mean±SD of at least three independent experiments.
Cultured NIH-3T3 fibroblast cells were transiently transfected with the plasmid COL1A2-Luc plasmid that contains sequences from −353 to +58 bp of the human COL1A2 promoter fused to the luciferase reporter gene. Twenty-four hour later the cells were incubated with compounds III, V, VIII and X (as examples) for 30 min and treated with TGFb (50 ng/ml) for 6 h. Protein lysates were prepared and analyzed for luciferase activity.

PPARg [3] = target: T1, PPARg (Homo sapiens, UniProt P37231); settings: cited from earlier work
T1 sequence (P37231 1-505): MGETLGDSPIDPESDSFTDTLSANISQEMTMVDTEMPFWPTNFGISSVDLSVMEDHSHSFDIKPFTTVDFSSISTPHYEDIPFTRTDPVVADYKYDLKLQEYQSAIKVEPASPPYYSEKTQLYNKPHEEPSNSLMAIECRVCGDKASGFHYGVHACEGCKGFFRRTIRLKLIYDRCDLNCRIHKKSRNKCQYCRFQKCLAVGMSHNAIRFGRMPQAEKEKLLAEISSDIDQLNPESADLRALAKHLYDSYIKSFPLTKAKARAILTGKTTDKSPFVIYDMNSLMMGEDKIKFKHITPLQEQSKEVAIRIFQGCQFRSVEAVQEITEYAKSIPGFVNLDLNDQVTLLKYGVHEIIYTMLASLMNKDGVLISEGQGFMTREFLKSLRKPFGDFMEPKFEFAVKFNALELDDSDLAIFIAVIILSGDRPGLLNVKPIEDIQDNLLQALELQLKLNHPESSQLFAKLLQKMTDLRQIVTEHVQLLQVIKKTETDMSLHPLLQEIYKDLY

Jurkat cells [4] = assay: Mitochondrial membrane potential (MitoTracker Red CMXR, flow cytometry); assay type: cell-based; settings: 2 hours, increasing concentrations
Jurkat cells [5] = assay: ROS generation (H2DCF-DA, flow cytometry); settings: 6 hours, increasing concentrations

| Compound | PPARg transactivation (luciferase activity) (PPARg [1]) | TGFb-induced collagen production (NIH-3T3 cells) | RSZ-induced PPARg transactivation (PPARg [2]) | TGFb-induced collagen type I gene transcription (human COL1A2 promoter) | mitochondrial membrane potential (Jurkat cells [4]) | intracellular ROS levels (Jurkat cells [5]) | also measured |
| --- | --- | --- | --- | --- | --- | --- | --- |
| C=C(C)[C@@H]1CCC(C)=C[C@H]1C1=C(O)C(=O)C(CCCCC)=C(NCC(C)C)C1=O [Compound IV, (1′R,6′R)-3-(Isobutylamine)-6-Hydroxy-3′-methyl-4-pentyl-6′-(prop-1-en-2-yl)-[1,1′-bi(cyclohexane)]-2′,3,6-triene-2,5-dione] | the most active compounds |  |  |  |  |  |  |
| C=C(C)[C@@H]1CCC(C)=C[C@H]1C1=C(O)C(=O)C(CCCCC)=C(NCc2ccccc2)C1=O [Compound VIII, (1′R,6′R)-3-(Benzylamine)-6-hydroxy-3′-methyl-4-pentyl-6′-(prop-1-en-2-yl)-[1,1′-bi(cyclohexane)]-2′,3,6-triene-2,5-dione] | the most active compounds | clearly inhibited | decrease | clearly inhibited |  |  |  |
| C=C(C)[C@@H]1CCC(C)=C[C@H]1C1=C(O)C(=O)C(CCCCC)=C(NCC)C1=O [Compound II, (1′R,6′R)-3-(Ethylamine)-6-hydroxy-3′-methyl-4-pentyl-6′-(prop-1-en-2-yl)-[1,1′-bi(cyclohexane)]-2′,3,6-triene-2,5-dione] | the most active compounds |  |  |  |  |  |  |
| 4-formyl-methoxy-CBD-quinone |  |  |  |  |  |  | affinity for PPARg compared to parent molecule CBD (PPARg [3]): higher affinity |
| C=C(C)[C@@H]1CCC(C)=C[C@H]1C1=C(O)C(=O)C(CCCCC)=C(NCCC(C)C)C1=O [Compound X, (1′R,6′R)-3-(Isopentylamine-6-Hydroxy)-3′-methyl-4-pentyl-6′-(prop-1-en-2-yl)-[1,1′-bi(cyclohexane)]-2′,3,6-triene-2,5-dione] |  | clearly inhibited | decrease | clearly inhibited | did not induce a loss | not reactive; also recorded: unable to induce ROS accumulation significantly |  |
| CN(CCOc1ccc(CC2SC(=O)NC2=O)cc1)c1ccccn1 (stereo not shown) [Rosiglitazone, reference compound] |  |  |  |  |  |  | increase of PPARg activity (fold induction) (PPARg [1]; 1 μM concentration): more than 100 times |
| C=C(C)[C@@H]1CCC(C)=C[C@H]1C1=C(O)C(=O)C(CCCCC)=C(NC(C)C)C1=O [Compound VII, (1′R,6′R)-3-(Isopropylamine)-6-Hydroxy-3′-methyl-4-pentyl-6′-(prop-1-en-2-yl)-[1,1′-bi(cyclohexane)]-2′,3,6-triene-2,5-dione] | the most active compounds |  |  |  | did not induce a loss | not reactive |  |
| 4 methyl-CBD-quinone |  |  |  |  |  |  | affinity for PPARg compared to parent molecule CBD (PPARg [3]): higher affinity |
| C=C(C)[C@@H]1CCC(C)=C[C@H]1C1=C(O)C(=O)C(CCCCC)=C(NCCCC)C1=O [Compound V, (1′R,6′R)-3-(Butylamine)-6-hydroxy-3′-methyl-4-pentyl-6′-(prop-1-en-2-yl)-[1,1′-bi(cyclohexane)]-2′,3,6-triene-2,5-dione] | the most active compounds | clearly inhibited | decrease | clearly inhibited | did not induce a loss | not reactive; also recorded: unable to induce ROS accumulation significantly |  |
| CBD-1,4-dihydroxyquinone |  |  |  |  |  |  | affinity for PPARg compared to parent molecule CBD (PPARg [3]): higher affinity |
| C=C(C)[C@@H]1CCC(C)=C[C@H]1C1=C(O)C(=O)C(CCCCC)=C(C(=O)OC/C=C(\C)CCC=C(C)C)C1=O [Compound XIII, (E)-3,7-dimethylocta-2,6-dienyl-4-hydroxy-5-((1R,6R)-3-methyl-6-(prop-1-en-2-yl)cyclohex-2-enyl)-3,6-dioxo-2-pentylcyclohexa-1,4-dienecarboxylate] |  |  | decrease |  |  |  |  |
| C=C(C)[C@@H]1CCC(C)=C[C@H]1C1=C(O)C(=O)C(CCCCC)=C(NCCCCC)C1=O [Compound III, (1′R,6′R)-3-(Pentylamine)-6-Hydroxy-3′-methyl-4-pentyl-6′-(prop-1-en-2-yl)-[1,1′-bi(cyclohexane)]-2′,3,6-triene-2,5-dione] | the most active compounds | clearly inhibited | decrease | clearly inhibited | did not induce a loss | not reactive; also recorded: unable to induce ROS accumulation significantly |  |
